Reference: paper PMC4289246, “Dose-dependent effects of lesogaberan on reflux measures in patients with refractory gastroesophageal reflux disease: a randomized, placebo-controlled study” (BMC Gastroenterology, 2014)
Where two headings read alike, the source gives them in different places.

Tests used:
[1] = parameters: method as in PMID 21410297; details: approximately; cited from earlier work
[2] = system: patients with GERD who had a partial response to PPI treatment; assay: GERD symptoms recorded by data logger and diary card during 24-h measurement; assay type: in vivo, human
Procedure: Impedance–pH readings were analysed by one investigator (JP) using dedicated software (BioVIEW Analysis®, version 5.5.4; Sandhill Scientific Inc.) and were then checked manually. This was performed in a blinded manner and the results were used to determine the number of reflux episodes, defined as a period when impedance decreased to less than 50% of baseline (liquid episode) or increased to more than 150% of baseline (gas episode), propagating […] from the most distal channel. Acid, weakly acid and non-acid reflux episodes were defined as episodes lasting longer than 5 s with a pH of < 4, 4.0–6.5 and > 6.5, respectively. The decision to use a cautious cut-off pH of 6.5 was taken in order to ensure that no measurements near to a pH of 7 would be erroneously categorized as weakly acidic. These definitions have previously been employed for studies of this type. During the 24-h period of ambulatory impedance–pH measurement, patients used a data logger and a diary card to record their meal intake and periods in supine position, as well as any GERD symptoms.

[3] = Plasma pharmacokinetics of lesogaberan during 24-h dosing; assay type: in vivo, human; details: for AUC(0-t) / Cmax / Tmax: human, oral, plasma; for AUC(0-t): modified-release capsules, read-out: AUC (0–24 h), geometric mean
Procedure: Blood samples were taken 1 h before the first administration of each dose, and at regular intervals during the 24-h period after the first administration of each dose, to assess the concentration of lesogaberan in plasma over time. […]

NC[C@@H](F)C[PH](=O)O [lesogaberan, (R)-(3-amino-2-fluoropropyl) phosphinic acid]
pharmacological half-life [1]: 11–13 h | median number of symptoms reported during dosing ([2]; 30 mg twice in 24 h): 1.0 symptom | median number of symptoms reported during dosing ([2]; 90 mg twice in 24 h): 1.0 symptom | median number of symptoms reported during dosing ([2]; 120 mg twice in 24 h): 0 symptoms | median number of symptoms reported during dosing ([2]; 240 mg twice in 24 h): 0.5 symptoms | fraction of peak concentration (Cmax) remaining at the end of the wash-out period ([3]; 7–28-day washout, estimated from half-life): ≤ 0.01% | AUC(0-t) ([3]; 30 mg twice in 24 h, patients): 5.25 µM·h | AUC(0-t) ([3]; 90 mg twice in 24 h, patients): 17.3 µM·h | AUC(0-t) ([3]; 120 mg twice in 24 h, patients): 22.2 µM·h | AUC(0-t) ([3]; 240 mg twice in 24 h, patients): 46.9 µM·h | Cmax ([3]; 30 mg, evening dose, patients, read-out: C max evening, geometric mean): 420 nM | Tmax ([3]; 30 mg, evening dose, patients, read-out: t max evening, geometric mean): 2.2 h | Cmax ([3]; 30 mg, morning dose, patients, read-out: C max morning, geometric mean): 350 nM | Tmax ([3]; 30 mg, morning dose, patients, read-out: t max morning, geometric mean): 1.7 h | Cmax ([3]; 90 mg, evening dose, patients, read-out: C max evening, geometric mean): 1680 nM | Tmax ([3]; 90 mg, evening dose, patients, read-out: t max evening, geometric mean): 1.9 h | Cmax ([3]; 90 mg, morning dose, patients, read-out: C max morning, geometric mean): 1300 nM | Tmax ([3]; 90 mg, morning dose, patients, read-out: t max morning, geometric mean): 1.7 h | Cmax ([3]; 120 mg, evening dose, patients, read-out: C max evening, geometric mean): 2210 nM | Tmax ([3]; 120 mg, evening dose, patients, read-out: t max evening, geometric mean): 1.9 h | Cmax ([3]; 120 mg, morning dose, patients, read-out: C max morning, geometric mean): 1480 nM | Tmax ([3]; 120 mg, morning dose, patients, read-out: t max morning, geometric mean): 1.9 h | Tmax ([3]; 240 mg, all four doses (30, 90, 120, 240 mg), morning and evening, read-out: geometric mean tmax): 1.7 to 2.6 h | Cmax ([3]; 240 mg, evening dose, patients, read-out: C max evening, geometric mean): 4180 nM | Tmax ([3]; 240 mg, evening dose, patients, read-out: t max evening, geometric mean): 2.6 h | Cmax ([3]; 240 mg, morning dose, patients, read-out: C max morning, geometric mean): 3310 nM | Tmax ([3]; 240 mg, morning dose, patients, read-out: t max morning, geometric mean): 1.7 h
